Laboratory results taken from US5681738A, “Use of 10-oxo-trans-8-decenoic acid in mushroom cultivation” (The Penn State Research Foundation, priority 1992, dated 1997).

What was measured:
[1] = system: separated stipes of Agaricus bisporus; test: Elongation of upper stipes of separated stipes (upper and lower portions) on test agar containing ODA, 3-day storage at 12° C.; parameters: species or system Agaricus bisporus (hybrid off-white); conditions: for % Elongation of upper stipes, Mean: control 14.4
Method: Four type strains of mushrooms were used: the white, off-white, hybrid white (U3) and hybrid off-white (U1). Mushrooms from each flush were harvested before the veil was broken. Freshly harvested mushrooms were transported within about one hour after harvest to Borland Laboratory and placed in the pilot plant cold room (4° C.) for about two hours before sampling. Mushrooms were sorted on the basis of size and appearance. Diseased, damaged, misshapen, veil-opened and extremely large or small mushrooms (>40 or <25 mm in cap diameter) were discarded. Mushrooms of uniform size (25-40 mm) and maturity of the button stage (stage 1, veil intact tightly) were used in this research.
Whole stipes were cut at the lower portions to a length of 7-9 mm to standardize the sample, and marked at the middle of the veil, which is the location where the veil attaches to the stipe, to indicate the upper and lower stipes. The separated stipes contained 2-4 mm of upper stipes and 5-6 nun of lower stipes. For the study using separated upper stipes, mushrooms were dissected directly into upper stipes with a length of 3-5 mm. The separated stipes or upper stipes were put upside down on the test agar containing various mushroom supernatants or ODA concentrations; i.e., the upper sides in contact with the agar surface (FIG. 12). All petri dishes were covered and stored at 12° C. The length of separated stipes and upper stipes was measured using a vernier caliper before and after certain days of storage.
Sterile ODA solutions were aseptically added into the autoclaved agar solutions to achieve the desired final ODA concentrations. The agar solution was then dispensed into dishes, ca 20.8 mL per dish. The level of ODA tested included 10^-4, 10^-5, 10^-6, 10^-7, and 10^-8 M. Mushrooms (hybrid off-white) from 6 different crops were used to study their postharvest growth. In the first 2 experiments, mushroom stipes were measured after 4-day storage at 12° C. In order to prevent stipe deterioration and desiccation of the test agar, in the following experiments mushroom stipes were measured after 3-day storage at 12° C.
The experimental data were subjected to a single classification analysis of variance (AOV) for a completely randomized design (Steele et al., 1980). Fisher's protected least significant difference (LSD) was applied to separate the means. The level of significance used in this research was 0.05.
ODA stimulated the elongation of upper stipes in excess of the control, but the response occurred only when the lower portions were present. The additional elongation of upper stipes was stimulated by ODA at a concentration as low as 10^-8 M (0.00184 ppm).

[2] = system: Agaricus bisporus mycelia; test: Dry matter of mycelia grown in potato dextrose yeast broth at 25° C.; type: cell-based, Agaricus bisporus (hybrid off-white); conditions: Week 5, control 15.6 b
Method: The commercial mushroom spawn (hybrid off-white), Agaricus bisporus (Lange) Imbach, was obtained from Alpha Spawn Co., Avondale, Pa., and inoculated onto potato dextrose yeast (PDY) agar (Difco) and incubated at 25° C. A pure culture was obtained from the grain spawn grown on petri dishes and re-inoculated into PDY agar and maintained at 25° C. before use.
The mushroom culture was grown on PDY agar or in PDY broth, both containing 0.5% yeast extract. The broth was dispensed into flasks prior to autoclaving, 50 mL. per flask, while 5 mL of sterile ODA solutions were aseptically added into flasks before inoculation.
To prepare ODA solutions, about 18.4 mg (0.1 mmole) of 10-oxo-trans-8-decenoic acid prepared as described above were dissolved in i mL ethanol and diluted with deionized water to 100 mL to give a molar concentration of 10^-3 M, and then diluted in order to add 1.0 mL of the solutions to each flask to give the required final concentrations.
Sterile ODA solutions were aseptically added into the autoclaved agar medium to achieve the desired final ODA concentrations, and then the medium was dispensed into petri dishes, ca 30 ml per dish. The levels of ODA tested included 2×10^-4, 10^-4, 10^-5, 10^-6 and 10^-7 M for both PDY agar and broth. These flasks and dishes were inoculated with 1 mm mycelial plugs from 4-week old cultures and incubated statically at 25° C. for 5 weeks. Each week, ca 300 μL of broth was aseptically taken from the flasks for laccase assay, while the colony diameter of every petri dish was measured using a vernier caliper to calculate the linear growth of the culture.
After 5-weeks of incubation, the dry matter of mycelia was determined by vacuum filtering liquid cultures in PDY broth through weighed filter paper, and drying to constant weight at 70° C.
Methods for the estimation of total fungal growth include the measurement of dry matter, linear growth, carbon dioxide evolution, chitin, ATP as well as extracellular laccase activity (Cochrane, (1958); Wood, (1979)). In this research the linear growth rate was used to examine the growth of mushroom mycelia on agar plates, while the extracellular laccase activity and dry matter were determined to estimate the growth of mycelia in liquid cultures. Extracellular laccases (p-diphenol: oxygen oxidoreductase, EC 1.10.3.2) produced by various classes of fungi are reported to be involved in biotransformation of lignin and lignosulfonate (Anders et al., (1976)), as well as in the breakdown of cellulose by cellulase (Westermark et al., (1974a); Westermark et al., (1974b); Haars et al., (1980)). Although the role of laccase in growth and development of Agaricus bisporus is not well defined, it has been observed that laccase production correlated with mycelial biomass of this fungus (Wood, (1979); Matcham et al., (1985); Claydon et al., (1988)).

Solubility = type: physicochemical

## O=C/C=C/CCCCCCC(=O)O [ODA, 10-oxo-trans-8-decenoic acid]
[1]; Agaricus bisporus, 72 h, 0.00184 ppm, separated stipes with lower portions, read-out: lowest concentration stimulating additional elongation of upper stipes
  minimal effective concentration: 0.01 µM
[1]; ODA 10^-4 M (18.4 ppm)
  % Elongation of upper stipes, Mean: 30.0%
[1]; ODA 10^-4 M (18.4 ppm), rep 1, control 14.5
  % Elongation of upper stipes: 25.1%
[1]; ODA 10^-4 M (18.4 ppm), rep 2, control 11.6
  % Elongation of upper stipes: 30.5%
[1]; ODA 10^-4 M (18.4 ppm), rep 3, control 17.1
  % Elongation of upper stipes: 34.2%
[1]; ODA 10^-5 M (1.84 ppm)
  % Elongation of upper stipes, Mean: 27.7%
[1]; ODA 10^-5 M (1.84 ppm), rep 1, control 14.5
  % Elongation of upper stipes: 30.7%
[1]; ODA 10^-5 M (1.84 ppm), rep 2, control 11.6
  % Elongation of upper stipes: 25.0%
[1]; ODA 10^-5 M (1.84 ppm), rep 3, control 17.1
  % Elongation of upper stipes: 27.4%
[1]; ODA 10^-6 M (0.184 ppm)
  % Elongation of upper stipes, Mean: 29.5%
[1]; ODA 10^-6 M (0.184 ppm), rep 1, control 14.5
  % Elongation of upper stipes: 27.5%
[1]; ODA 10^-6 M (0.184 ppm), rep 2, control 11.6
  % Elongation of upper stipes: 24.7%
[1]; ODA 10^-6 M (0.184 ppm), rep 3, control 17.1
  % Elongation of upper stipes: 36.2%
[1]; ODA 10^-7 M (0.0184 ppm)
  % Elongation of upper stipes, Mean: 30.9%
[1]; ODA 10^-7 M (0.0184 ppm), rep 1, control 14.5
  % Elongation of upper stipes: 27.3%
[1]; ODA 10^-7 M (0.0184 ppm), rep 2, control 11.6
  % Elongation of upper stipes: 38.3%
[1]; ODA 10^-7 M (0.0184 ppm), rep 3, control 17.1
  % Elongation of upper stipes: 27.2%
[1]; ODA 10^-8 M (0.00184 ppm)
  % Elongation of upper stipes, Mean: 30.5%
[1]; ODA 10^-8 M (0.00184 ppm), rep 1, control 14.5
  % Elongation of upper stipes: 23.7%
[1]; ODA 10^-8 M (0.00184 ppm), rep 2, control 11.6
  % Elongation of upper stipes: 32.7%
[1]; ODA 10^-8 M (0.00184 ppm), rep 3, control 17.1
  % Elongation of upper stipes: 35.1%
[1]; all levels, only when lower portions present
  effect on upper stipe elongation (in words): significant effect
[2]; ODA 2 × 10^-4 M (36.8 ppm)
  Dry matter: 16.7 mg
[2]; ODA 10^-4 M (18.4 ppm)
  Dry matter: 23.2 mg
[2]; ODA 10^-5 M (1.84 ppm)
  Dry matter: 48.5 mg
[2]; ODA 10^-6 M (0.184 ppm)
  Dry matter: 44.1 mg
[2]; ODA 10^-7 M (0.0184 ppm)
  Dry matter: 16.9 mg
Solubility; acetone, chloroform, ethanol, ethyl ether, methanol, methylene chloride and water
  solubility: soluble
Solubility; non-polar solvents such as pentane, hexane, heptane and benzene
  solubility: slightly soluble
